≈ marks a conversion by molar mass, not a printed value. Counter-ions that a name gives are not always drawn. Like-named read-outs stand apart in the source and are kept apart here.
Tests used:
[1] = molecular target: T1, Notum (core, 81–451C330S) (Homo sapiens, UniProt Q6P988, C330S); experiment: Notum-OPTS biochemical assay, Notum (81–451C330S); conditions: for fold increase in Notum inhibition over 3a: vs 3a, more potent
T1 construct: high-throughput biochemical assay with Notum (81–451C330S) and OPTS as a synthetic fluorescent substrate; made in house
T1 sequence (Q6P988 81-451 C330S): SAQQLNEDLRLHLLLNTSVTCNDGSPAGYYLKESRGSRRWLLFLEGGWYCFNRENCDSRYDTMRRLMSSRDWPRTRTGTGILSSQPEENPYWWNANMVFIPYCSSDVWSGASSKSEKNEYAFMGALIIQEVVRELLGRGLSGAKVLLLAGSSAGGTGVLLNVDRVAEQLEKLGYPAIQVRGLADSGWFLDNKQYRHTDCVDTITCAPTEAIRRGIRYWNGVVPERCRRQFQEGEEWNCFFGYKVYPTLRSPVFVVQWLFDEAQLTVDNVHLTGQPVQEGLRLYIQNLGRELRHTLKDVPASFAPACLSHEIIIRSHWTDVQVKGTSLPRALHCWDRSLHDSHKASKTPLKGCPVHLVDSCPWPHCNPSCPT
Procedure: Notum inhibitors 3–5 (Table 1, Table 2, Table 3, Table 4) were either purchased or prepared using established synthetic methods from readily available starting materials (Scheme 1). Where necessary, the synthesis of many of these amines (e.g. 6) have been reported previously and full details of their preparation have been included in the Experimental Section. Notum inhibition activity was determined using the standard Notum-OPTS biochemical assay using IC50 values. These values were used to compare relative activities with covalent inhibitors under carefully regulated assay conditions. […] Selected inhibitors were screened for inhibition of Notum activity in a TCF/LEF Reporter (Luciferase) cell line with exogenous WNT3a and Notum, and soaked into Notum crystals to determine their binding modes and evidence of MoA.
(§1) Methods have been described in detail.

[2] = Stability in mouse liver microsomes; assay type: in vitro ADME; conditions: for half-life / half-life at 1 h: mouse, read-out: MLM Stability t1/2
Procedure: (§2) Selected compounds were routinely screened for aqueous solubility in PBS (pH 7.4), transit performance in MDCK-MDR1 cell lines for permeability, and metabolic stability in MLM and HLM as a measure of clearance. The main metabolites and routes of metabolism of 4y were determined in MLM. Assay protocols and additional data are presented in the Supplementary Material (Tables S1–S7). ADME studies reported in this work were performed by WuXi AppTec (Shanghai, China).
(§3) Representative assay protocols have been described in detail. ^1,2

[3] = Stability in human liver microsomes; assay type: in vitro ADME; conditions: for half-life: human, read-out: HLM Stability t1/2
Procedure: as §2, §3

Notum = molecular target: T2, Notum (Homo sapiens, UniProt Q6P988); experiment: TCF/LEF Reporter (Luciferase) cell line with exogenous WNT3a and Notum; assay type: cell-based
T2 construct: host or cells: TCF/LEF Reporter (Luciferase) cell line; Notum added exogenously
T2 sequence (Q6P988 20-496): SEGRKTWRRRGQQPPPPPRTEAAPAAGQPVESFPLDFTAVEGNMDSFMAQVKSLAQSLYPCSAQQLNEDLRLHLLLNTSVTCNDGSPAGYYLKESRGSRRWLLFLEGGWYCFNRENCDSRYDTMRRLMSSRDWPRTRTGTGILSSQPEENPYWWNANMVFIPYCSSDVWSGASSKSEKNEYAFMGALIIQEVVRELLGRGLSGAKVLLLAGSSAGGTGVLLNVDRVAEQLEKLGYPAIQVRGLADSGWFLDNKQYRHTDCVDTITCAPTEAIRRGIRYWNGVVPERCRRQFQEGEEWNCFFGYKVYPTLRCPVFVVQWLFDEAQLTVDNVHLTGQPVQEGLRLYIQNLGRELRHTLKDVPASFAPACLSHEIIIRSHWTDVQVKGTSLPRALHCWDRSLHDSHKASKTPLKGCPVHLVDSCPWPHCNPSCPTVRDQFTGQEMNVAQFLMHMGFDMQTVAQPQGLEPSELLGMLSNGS
Procedure: Notum inhibitors 3–5 (Table 1, Table 2, Table 3, Table 4) were either purchased or prepared using established synthetic methods from readily available starting materials (Scheme 1). Where necessary, the synthesis of many of these amines (e.g. 6) have been reported previously and full details of their preparation have been included in the Experimental Section. Notum inhibition activity was determined using the standard Notum-OPTS biochemical assay using IC50 values. These values were used to compare relative activities with covalent inhibitors under carefully regulated assay conditions. Confirmed inhibitors were routinely screened in in vitro ADME assays. Selected inhibitors were screened for inhibition of Notum activity in a TCF/LEF Reporter (Luciferase) cell line with exogenous WNT3a and Notum, and soaked into Notum crystals to determine their binding modes and evidence of MoA. […]
as §1

[4] = Aqueous solubility in PBS (pH 7.4); assay type: physicochemical; conditions: for solubility thermodynamic: PBS, Table S2, pH 7.4, n = 2, * below lower limit of quantification, read-out: Thermodynamic Solubility @ RT
Procedure: as §2, §3

[5] = system: TCF/LEF Reporter (Luciferase) cell line; experiment: TCF/LEF reporter (Luciferase) assay with WNT3A in the absence of Notum; assay type: cell-based; conditions: up to 10 μM
Procedure: Early leads 4v, 4w and 4y were then evaluated in additional pharmacology and ADME screens (Table 3). […] Screening 4w and 4y in the biochemical assay using full length Notum and OPTS confirmed potent inhibition of Notum activity.
Figure S4D. Notum TCF/LEF reporter (Luciferase) data with WNT3A (200 ng/mL) in the absence of Notum. Representative response-concentration curves are for 4w (2 of 6 shown) from a larger data set for compounds 3-5. Examples are from different screening runs.

[6] = Table 2, mean ± s.d. of n = 4–12, >10 = 20–50% inhibition @ 10 μM, read-out: Notum IC50
[7] = Table 4, mean ± s.d. of n = 4–8, >10 = 20–50% inhibition @ 10 μM, read-out: Notum IC50

Compound	MLM Stability Cli [2]	half-life [2]	IC50 [1, 6]	IC50 [1, 7]	other results
CC(=O)N1CCc2ccccc21 [Compound 3a, 1-(Indolin-1-yl)ethan-1-one]	180 µL/min/mg protein	8 min			IC50 ([1]; Table 1, mean ± s.d. of n = 2–6, inactive = <20% inhibition @ 10 μM, >10 = 20–50% inhibition @ 10 μM, 2a covalent, IC50 time-dependant, read-out: Notum IC50): 400 ± 110 nM; LE ([1]; ligand efficiency from Notum OPTS IC50): 0.75; LLE ([1]; lipophilic ligand efficiency from Notum OPTS IC50 and clogP): 5.0; fold more potent than 2b (Notum IC50) ([1]; vs 2b): 7 fold
CC(=O)N1CC2(CC2)c2c1cccc2C(F)(F)F [Compound 4aa, 1-(4'-(Trifluoromethyl)spiro[cyclopropane-1,3′-indolin]-1′-yl)ethan-1-one]	670 µL/min/mg protein	2 min	17 ± 2 nM		
CC(=O)N1CC2(CC2)c2ccccc21 [Compound 4d, 1-(Spiro[cyclopropane-1,3′-indolin]-1′-yl)ethan-1-one]	360 µL/min/mg protein	3.8 min	61 ± 12 nM		
CC(=O)N1CCc2c(Cl)cccc21 [Compound 4g, 1-(4-Chloroindolin-1-yl)ethan-1-one]			40 ± 24 nM		fold increase in Notum inhibition over 3a [1]: 10 fold; HLM Stability Cli [3]: 640 µL/min/mg protein; half-life [3]: 2.2 min
CC(=O)N1CCc2c1cccc2C(F)(F)F [Compound 4o, 1-(4-(Trifluoromethyl)indolin-1-yl)ethan-1-one]			30 ± 4 nM		HLM Stability Cli [3]: 900 µL/min/mg protein; half-life [3]: 1.5 min
CC(=O)N1CCc2cc(C#N)ccc21 [Compound 4r, 1-Acetylindoline-5-carbonitrile]			> 10000 nM		
CC(=O)N1CCc2cc(F)ccc21 [Compound 4s, 1-(5-Fluoroindolin-1-yl)ethan-1-one]			350 ± 40 nM		
COc1ccc2c(c1)CCN2C(C)=O [Compound 4t, 1-(5-Methoxyindolin-1-yl)ethan-1-one]			670 ± 80 nM		
CC(=O)N1CCc2cc(C(F)(F)F)ccc21 [Compound 4u, 1-(5-(Trifluoromethyl)indolin-1-yl)ethan-1-one]			520 ± 50 nM		
CC(=O)N1CCc2c1ccc(Cl)c2C(F)(F)F [Compound 4v, 1-(5-Chloro-4-(trifluoromethyl)indolin-1-yl)ethan-1-one]	650 µL/min/mg protein	2.1 min	1.3 ± 0.3 nM		IC50 ([1]; Notum (core, 81–451C330S), read-out: OPTS, IC50): 1.3 ± 0.3 nM; EC50 (Notum; Notum (core, 81–451C330S), restoration of Wnt signalling, read-out: TCF-LEF, EC50): 28 ± 20 nM; restoration of Wnt signalling in the presence of Notum (Notum; concentration-response curves up to 10 μM): restored Wnt signalling; solubility thermodynamic [4]: 1.55 µg/mL (≈ 5.88 µM); solubility ([4]; Table 3, PBS pH 7.4): 1.6 µg/mL (≈ 6.07 µM); microsomal CLint at 1 h ([2]; Table 3, read-out: MLM Clint): 650 µL/min/mg; assay interference or cell toxicity in the absence of Notum [5]: not by assay interference or cell toxicity
CC(=O)N1CCc2ccc(Cl)c(Cl)c21 [Compound 4x, 1-(6,7-Dichloroindolin-1-yl)ethan-1-one]			2200 ± 600 nM		
CC(=O)N1CC2(CC2)c2cc(Cl)ccc21 [Compound 4z, 1-(5′-Chlorospiro[cyclopropane-1,3′-indolin]-1′-yl)ethan-1-one]	620 µL/min/mg protein	2.2 min	34 ± 10 nM		
CC(C)C(=O)N1CC2(CC2)c2c(Cl)cccc21 [Compound 5a, 1-(4′-Chlorospiro[cyclopropane-1,3′-indolin]-1′-yl)-2-methylpropan-1-one]				4400 ± 300 nM	
CS(=O)(=O)N1CC2(CC2)c2c(Cl)cccc21 [Compound 5b, 4′-Chloro-1'-(methylsulfonyl)spiro[cyclopropane-1,3′-indoline]]	200 µL/min/mg protein	7 min		1000 ± 300 nM	
CC(=O)n1ccc2c(Cl)cccc21 [Compound 5c, 1-(4-Chloro-1H-indol-1-yl)ethan-1-one]				730 ± 40 nM	
CC(=O)n1ccc2c(Cl)c(Cl)ccc21 [Compound 5d, 1-(4,5-Dichloro-1H-indol-1-yl)ethan-1-one]	1320 µL/min/mg protein	1.1 min		31 ± 4 nM	solubility thermodynamic [4]: < 0.36 µg/mL
CC(=O)N1CCOc2c(Cl)cccc21 [Compound 5e, 1-(8-Chloro-2,3-dihydro-4H-benzo[b][1,4]oxazin-4-yl)ethan-1-one]				8500 ± 2100 nM	
O=C1CCC2Cc3ccccc3N12 (stereo not shown) [Compound 5f, 1,2,9,9a-Tetrahydro-3H-pyrrolo[1,2-a]indol-3-one]	73 µL/min/mg protein	19 min		180 ± 20 nM	fold increase in Notum inhibition over 3a [1]: 2 fold; solubility thermodynamic [4]: 577 µg/mL (≈ 3330 µM); half-life at 1 h [2]: 18 min
O=C1OCC2Cc3ccccc3N12 (stereo not shown) [Compound 5h, 9,9a-Dihydro-1H,3H-oxazolo[3,4-a]indol-3-one]				6100 ± 700 nM	
O=C1COCC2Cc3ccccc3N12 (stereo not shown) [Compound 5i, 10,10a-Dihydro-1H-[1,4]oxazino[4,3-a]indol-4(3H)-one]				1600 to 10000 nM	
O=C1CCC2Cc3cc(Cl)ccc3N12 (stereo not shown) [Compound 5j, 7-Chloro-1,2,9,9a-tetrahydro-3H-pyrrolo[1,2-a]indol-3-one]				1200 ± 400 nM	
O=C1CCC2Cc3c(Cl)cccc3N12 (stereo not shown) [Compound 5k, 8-Chloro-1,2,9,9a-tetrahydro-3H-pyrrolo[1,2-a]indol-3-one]				490 ± 30 nM	
CC12CCC(=O)N1c1ccccc1C2 (stereo not shown) [Compound 5l, 3a-Methyl-3,4-dihydro-2H-pyrrolo[1,2-a]indol-1-one]				2100 ± 310 nM	
O=C1N2c3ccccc3CC2CC1(F)F (stereo not shown) [Compound 5m, 2,2-Difluoro-1,2,9,9a-tetrahydro-3H-pyrrolo[1,2-a]indol-3-one]					half-life at 1 h [2]: 16 min
Clc1ccc2c(c1Cl)CCN2 [Compound 5n, 4,5-Dichloroindoline]				3600 ± 670 nM	
CCN1CCc2c(Cl)cccc21 [Compound 5o, 4-Chloro-1-ethylindoline hydrochloride]				> 10000 nM	

— PMC10626578, “Designed switch from covalent to non-covalent inhibitors of carboxylesterase Notum activity” (European Journal of Medicinal Chemistry, 2023)
